Measured values from paper PMC8607422, “Development of a novel TLR8 agonist for cancer immunotherapy” (Molecular Biomedicine, 2020).
Read-outs that look alike come from different tables or passages of the source.

Assays:
[1] = biological target: T1, hTLR7 (Homo sapiens, UniProt Q9NYK1); assay: HEK-Blue hTLR7 SEAP reporter agonist assay; assay type: cell-based; settings: HEK-Blue hTLR7 cells, highest concentration 50 μM
T1 construct: host or cells: HEK-Blue hTLR7
T1 sequence (Q9NYK1 27-1049): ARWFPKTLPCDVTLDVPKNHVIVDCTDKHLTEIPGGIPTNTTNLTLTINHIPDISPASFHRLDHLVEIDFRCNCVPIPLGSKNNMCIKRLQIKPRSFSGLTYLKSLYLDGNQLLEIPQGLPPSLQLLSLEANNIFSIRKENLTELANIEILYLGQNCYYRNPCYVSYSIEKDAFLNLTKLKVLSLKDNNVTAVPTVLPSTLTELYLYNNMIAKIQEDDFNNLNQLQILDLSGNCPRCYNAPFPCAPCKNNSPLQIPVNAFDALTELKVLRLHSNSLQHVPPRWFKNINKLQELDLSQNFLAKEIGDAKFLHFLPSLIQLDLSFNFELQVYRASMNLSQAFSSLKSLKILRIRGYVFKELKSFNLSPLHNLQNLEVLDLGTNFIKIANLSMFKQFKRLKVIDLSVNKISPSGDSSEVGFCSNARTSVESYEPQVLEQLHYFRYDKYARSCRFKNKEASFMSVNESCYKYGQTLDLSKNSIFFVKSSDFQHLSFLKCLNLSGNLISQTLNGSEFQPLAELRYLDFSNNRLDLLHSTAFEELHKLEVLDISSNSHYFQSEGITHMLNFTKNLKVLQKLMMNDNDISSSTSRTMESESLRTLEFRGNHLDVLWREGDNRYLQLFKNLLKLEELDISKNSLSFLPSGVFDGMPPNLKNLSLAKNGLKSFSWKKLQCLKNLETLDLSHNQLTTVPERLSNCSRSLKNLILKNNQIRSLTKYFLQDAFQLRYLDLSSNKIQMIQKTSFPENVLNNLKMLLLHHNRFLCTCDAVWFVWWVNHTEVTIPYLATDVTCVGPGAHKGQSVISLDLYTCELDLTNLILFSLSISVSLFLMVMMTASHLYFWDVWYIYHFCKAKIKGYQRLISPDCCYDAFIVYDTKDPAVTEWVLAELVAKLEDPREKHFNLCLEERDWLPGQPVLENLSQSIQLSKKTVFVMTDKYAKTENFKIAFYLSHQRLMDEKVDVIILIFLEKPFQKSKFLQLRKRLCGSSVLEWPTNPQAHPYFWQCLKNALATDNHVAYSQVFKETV
From the text: HEK-Blue™ hTLR4, 7, 8 and 9 cell lines were purchased from InvivoGen (Hong Kong). The cells express the human TLR gene and NF-κB/AP-1-inducible SEAP (secreted embryonic alkaline phosphatase) reporter gene. SEAP levels produced upon TLR stimulation can be determined by QUANTI-Blue™. In the cell-based assay, the main reagents used were QUANTI-Blue™ (InvivoGen) and ATPlite 1 Step (Perkin Elmer). The main instruments used were the microplate reader SpectraMax 340PC (Molecular Device) and Envision (Perkin Elmer). Motolimod and DN052 were synthesized in house. […] The compounds were in 10 mM stock solution in DMSO and stored at − 20°C. The compounds were serially diluted in the concentration range from 0.5 nM to 15 μM (up to 50 μM in the hTLR4, hTLR7 and hTLR9 assays) and added to 96-well plates. DMSO was used as the negative control. LPS-EK, R848, motolimod and ODN2006 were used as the positive control for TLR4, 7, 8 and 9, respectively. The cells were cultured and treated with the compounds at 37°C, 5%CO2 for 24 h. […] After 1.5 h of incubation, the optical density was measured using the spectrophotometer at 650 nm in the microplate reader of SpectraMax 340PC. The cell viability of each well was determined using ATPlite 1 Step following the manufacturer’s instruction. The luminescence signal in each well of plates was measured in the microplate reader of Envision.

[2] = test system: human peripheral blood mononuclear cells (PBMCs); assay: Ex vivo human PBMC cytokine induction assay; assay type: cell-based; settings: 24 h
Protocol: Briefly, PBMCs were isolated from fresh human blood (Chempartner, Shanghai, China). 2 × 10^5/100 μL/well hPBMCs were plated on 96-well cell culture plates. Serial dilutions of compounds with concentration range from 2 nM to 30 μM were added in duplicate wells. LPS was included as a control. The plate was incubated in a 37°C, 5% CO2 incubator for 24 h. The supernatant was harvested for cytokine detection using MILLIPLEX MAP Human Cytokine/Chemokine Magnetic Bead Panel - Immunology Multiplex Assay (Millipore) following the manufacturer’s protocol. Cytokines including TNF-α, IFN-α2, IL-1α, IL-1β, IL-6, IL-8, IL-10, IL-12p40, IL-12p70, MIP-1α, MIP-1β, G-CSF and IFN-γ were measured.

For `CCCN(CCC)C(=O)C1=Cc2ccc(-c3ccc(C(=O)N4CCCC4)cc3)cc2N=C(N)C1` [Motolimod, motolimod], the EC50 [1] was 19800 nM, the EC50 ([2]; Donor 1, 24 h, read-out: EC50 G-CSF induction) was 841 nM and the EC50 ([2]; Donor 1, 24 h, read-out: EC50 IFN-α2 induction) was 1330 nM. It also gave an EC50 ([2]; Donor 1, 24 h, read-out: EC50 IFN-γ induction) of 4160 nM, an EC50 ([2]; Donor 1, 24 h, read-out: EC50 IL-1α induction) of 849 nM and an EC50 ([2]; Donor 1, 24 h, read-out: EC50 IL-1β induction) of 665 nM. For the same molecule, the EC50 ([2]; Donor 1, 24 h, read-out: EC50 IL-6 induction) was 424 nM, the EC50 ([2]; Donor 1, 24 h, read-out: EC50 IL-8 induction) was 504 nM and the EC50 ([2]; Donor 1, 24 h, read-out: EC50 IL-10 induction) was 304 nM. It also gave an EC50 ([2]; Donor 1, 24 h, read-out: EC50 IL-12(p40) induction) of 447 nM, an EC50 ([2]; Donor 1, 24 h, read-out: EC50 IL-12(p70) induction) of 285 nM and an EC50 ([2]; Donor 1, 24 h, read-out: EC50 MIP-1α induction) of 277 nM. It also gave an EC50 ([2]; Donor 1, 24 h, read-out: EC50 MIP-1β induction) of 277 nM, an EC50 ([2]; Donor 1, 24 h, read-out: EC50 TNF-α induction) of 321 nM and an EC50 ([2]; Donor 2, 24 h, read-out: EC50 G-CSF induction) of 461 nM. For the same molecule, the EC50 ([2]; Donor 2, 24 h, read-out: EC50 IFN-α2 induction) was 344 nM, the EC50 ([2]; Donor 2, 24 h, read-out: EC50 IFN-γ induction) was 1660 nM and the EC50 ([2]; Donor 2, 24 h, read-out: EC50 IL-1α induction) was 348 nM. For the same molecule, the EC50 ([2]; Donor 2, 24 h, read-out: EC50 IL-1β induction) was 556 nM, the EC50 ([2]; Donor 2, 24 h, read-out: EC50 IL-6 induction) was 439 nM and the EC50 ([2]; Donor 2, 24 h, read-out: EC50 IL-8 induction) was 502 nM. The EC50 ([2]; Donor 2, 24 h, read-out: EC50 IL-10 induction) was 191 nM, the EC50 ([2]; Donor 2, 24 h, read-out: EC50 IL-12(p40) induction) was 344 nM and the EC50 ([2]; Donor 2, 24 h, read-out: EC50 IL-12(p70) induction) was over 30000 nM. It also gave an EC50 ([2]; Donor 2, 24 h, read-out: EC50 MIP-1α induction) of 208 nM, an EC50 ([2]; Donor 2, 24 h, read-out: EC50 MIP-1β induction) of 248 nM and an EC50 ([2]; Donor 2, 24 h, read-out: EC50 TNF-α induction) of 317 nM.
